Laboratory results: US6649626B1, “N-substituted 1-(lactone) isoquinolones for treating nervous disorders” (Centre National de la Recherche Scientifique (CNRS), priority 1999, dated 2003)
Read-outs that look alike come from different tables or passages of the source.

How the values were obtained:
[1] = molecular target: T1, α1β2γ2 subtype of the GABA receptor (Rattus norvegicus, UniProt P18508+P62813+P63138); test: Electrophysiology: modulation of GABA currents in Xenopus oocytes expressing recombinant GABA-A receptors; type: cell-based; conditions: for % stimulation of the GABA currents / % stimulation of the GABA currents (100 μM): α1β2γ2 in oocytes; for % stimulation of the GABA currents (100 μM): 100 μM compound with GABA
T1 construct: expressed in transfected cells; host or cells: Xenopus laevis oocytes (cRNA injection)

[2] = molecular target: Ro15-4513 binding (GABA-A receptor); test: Ro15-4513 displacement; conditions: for Ro15-4513 displacement: 100 μM
[3] = molecular target: picrotoxin-binding site of the GABA-A receptor; test: Displacement of 35S-TBPS from brain membranes; set-up: species or system rats; conditions: for IC50: tissue not stated
[4] = test system: GABA-binding site of the GABA-A receptor; test: Displacement of tritiated muscimol from brain membranes; conditions: for Muscimol: stimulation: stimulation instead of displacement
[5] = molecular target: benzodiazepine-binding site of the GABA-A receptor; test: Displacement of tritiated flunitrazepam from brain membranes; conditions: read-out: IC50 Flu / BZ receptor
[6] = test system: recombinant receptors of the composition of αxβ2γ2 subunits in which x=1, 2, 3, 5, 6; test: Stimulation of the GABA current at recombinant receptors with other α subunits; type: cell-based; conditions: α1 replaced by the α2, α3, α5 or α6 subunit
[7] = molecular target: T2, benzodiazepine-binding site of the GABA-A receptor (Rattus norvegicus, UniProt P18508+P62813); test: Displacement of tritiated flunitrazepam from brain membranes; conditions: tissue not stated; for inhibition at 100 µM: read-out: Inhibition of the tritiated ligands % Flu (100 μM)
T2 construct: IC50 Flu / BZ receptor; other: cerebellum (ce); other: cerebellum (ce; BZ1 subtype); other: 10 μM; cerebellum; other: 100 μM; other: 0.5 μM

[8] = molecular target: T3, picrotoxin-binding site of the GABA-A receptor; test: Displacement of 35S-TBPS from brain membranes; set-up: species or system rats; conditions: cortex
T3 construct: other: cortex

[9] = molecular target: T4, picrotoxin-binding site of the GABA-A receptor; test: Displacement of 35S-TBPS from brain membranes; set-up: species or system rats; conditions: cerebellum
T4 construct: other: cerebellum

T1 sequence (P62813 28-455): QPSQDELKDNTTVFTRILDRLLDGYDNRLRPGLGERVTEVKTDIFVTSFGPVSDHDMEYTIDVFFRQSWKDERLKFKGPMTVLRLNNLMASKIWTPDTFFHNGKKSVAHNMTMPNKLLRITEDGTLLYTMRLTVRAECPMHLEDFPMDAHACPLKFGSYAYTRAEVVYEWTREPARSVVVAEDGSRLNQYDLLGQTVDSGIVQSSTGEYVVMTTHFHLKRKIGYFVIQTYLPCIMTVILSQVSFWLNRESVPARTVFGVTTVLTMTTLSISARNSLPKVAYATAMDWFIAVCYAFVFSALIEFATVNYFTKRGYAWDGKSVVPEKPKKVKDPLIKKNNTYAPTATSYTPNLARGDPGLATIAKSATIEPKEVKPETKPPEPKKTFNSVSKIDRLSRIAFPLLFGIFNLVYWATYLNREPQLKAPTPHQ
T1 sequence (P63138 25-474 limits assumed): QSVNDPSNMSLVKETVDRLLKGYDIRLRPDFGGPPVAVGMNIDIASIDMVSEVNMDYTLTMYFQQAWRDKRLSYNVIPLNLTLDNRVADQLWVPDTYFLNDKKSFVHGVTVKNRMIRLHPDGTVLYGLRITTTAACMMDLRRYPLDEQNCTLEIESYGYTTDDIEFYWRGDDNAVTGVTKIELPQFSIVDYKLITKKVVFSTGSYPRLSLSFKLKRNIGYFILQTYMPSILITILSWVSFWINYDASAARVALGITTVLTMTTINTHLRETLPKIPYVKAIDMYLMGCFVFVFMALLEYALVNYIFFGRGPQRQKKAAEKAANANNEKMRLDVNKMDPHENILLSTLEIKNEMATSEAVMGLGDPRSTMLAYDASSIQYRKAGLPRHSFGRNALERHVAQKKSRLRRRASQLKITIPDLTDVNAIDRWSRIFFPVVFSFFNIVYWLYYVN
T1 sequence (P18508 39-466): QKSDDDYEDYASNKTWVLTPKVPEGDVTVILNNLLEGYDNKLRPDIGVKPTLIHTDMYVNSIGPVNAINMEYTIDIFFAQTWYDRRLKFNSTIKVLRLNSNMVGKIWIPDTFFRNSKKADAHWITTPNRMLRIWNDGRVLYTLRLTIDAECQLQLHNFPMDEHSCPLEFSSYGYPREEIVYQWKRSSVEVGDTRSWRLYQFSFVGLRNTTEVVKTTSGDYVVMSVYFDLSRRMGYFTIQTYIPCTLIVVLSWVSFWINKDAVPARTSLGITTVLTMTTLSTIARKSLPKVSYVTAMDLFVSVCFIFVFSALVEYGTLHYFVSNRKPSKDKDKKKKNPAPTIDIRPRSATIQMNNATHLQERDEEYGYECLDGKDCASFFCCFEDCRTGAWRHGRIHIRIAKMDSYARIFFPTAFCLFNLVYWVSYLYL
T2 sequence (P62813 28-455): as the sequence (P62813 28-455) above
T2 sequence (P18508 39-466): as the sequence (P18508 39-466) above
T2 sequence (P63138 26-474 partner): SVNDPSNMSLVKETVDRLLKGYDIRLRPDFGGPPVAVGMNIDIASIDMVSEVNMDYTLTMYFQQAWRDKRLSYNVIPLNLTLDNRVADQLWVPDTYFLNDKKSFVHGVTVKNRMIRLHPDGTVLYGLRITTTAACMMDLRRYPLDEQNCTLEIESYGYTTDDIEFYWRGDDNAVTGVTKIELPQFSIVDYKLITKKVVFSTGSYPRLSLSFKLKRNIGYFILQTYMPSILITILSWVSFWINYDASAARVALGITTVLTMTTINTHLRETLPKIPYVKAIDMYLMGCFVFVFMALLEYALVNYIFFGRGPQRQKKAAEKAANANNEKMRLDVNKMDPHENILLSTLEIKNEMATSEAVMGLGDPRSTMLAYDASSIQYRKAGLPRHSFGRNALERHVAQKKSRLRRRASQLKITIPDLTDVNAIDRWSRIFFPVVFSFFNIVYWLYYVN

O=C1CCC(C2c3ccccc3C=CN2C(=O)OCc2ccccc2)O1 (racemic) [Compound 75, (±)-(1R,2′R)-2-N-Benzyloxycarbonyl-1-(2,3,4,5-tetrahydro-5-oxo-2-furyl)-1,2-dihydroisoquinoline]
melting point: 109 to 111 °C
% stimulation of the GABA currents ([1]; 10 μM compound): +148 ± 21% (10 μM)

O=C1CC[C@H]([C@H]2c3ccccc3CCN2S(=O)(=O)c2ccccc2)O1 (racemic) [Compound 65, (±)-(1R,2′R)-2-N-Benzenesulfonyl-1-(2,3,4,5-tetrahydro-5-oxo-2-furyl)-1,2,3,4-tetrahydroisoquinoline]
IC50 [2]: 20 µM
melting point: 177 to 179 °C
IC50 [3]: ~100 µM
Muscimol: stimulation ([4]; 100 μM): weak stimulation
% stimulation of the GABA currents (100 μM) [1]: +423%
% stimulation of the GABA currents (100 μM) ([1]; listed as (+/−) 65): +423%

O=C1CCC(C2c3ccccc3CCN2S(=O)(=O)c2ccc(C(F)(F)F)cc2)O1 (mixture of isomers) [Compound 70]
IC50 [2]: > 100 µM
Muscimol: stimulation ([4]; 100 μM): weak stimulation at 100 μM in the cortex alone
IC50 ([5]; tissue not stated): > 100 µM

COc1cc2c(cc1OC)C([C@H]1C=CC(=O)O1)N(C(=O)OCc1ccccc1)CC2 (mixture of isomers) [Compound 32a, (±)-(1R,2′R)-1-(2,5-Dihydro-5-oxo-2-furyl)-2-N-benzyloxycarbonyl-6,7-dimethoxy-1,2,3,4-tetrahydroisoquinoline]
stimulation when the α1 subunit is replaced [6]: greatly increased
Displacement of muscimol ([4]; concentration not given): Displacement of muscimol = 0%
stimulation of the GABA currents (in words) ([1]; α1β2γ2 receptor): only weakly stimulates

COc1ccc(S(=O)(=O)N2CCc3ccccc3C2C2CCC(=O)O2)cc1 (mixture of isomers) [Compound 72]
Ro15-4513 displacement [2]: Muscimol: 100 μM = 0% Ro15-4513: 100 μM = 0%
IC50 [3]: ~100 µM
Displacement of muscimol ([4]; 100 μM): Muscimol: 100 μM = 0% Ro15-4513: 100 μM = 0%
Inhibition of the tritiated ligands % Flu (100 μM) ([7]; 100 μM): 0%

COc1cc2c(cc1OC)[C@H]([C@@H]1CCC(=O)O1)NCC2 (racemic)
melting point: 119 °C

O=C1C=C[C@H]([C@H]2c3ccccc3CCN2C(=S)Oc2ccccc2)O1 (racemic) [Compound 63]
Ro15-4513 displacement [2]: Muscimol: 100 μM = 0% Ro15-4513: 100 μM = 0%
Displacement of muscimol ([4]; 100 μM): Muscimol: 100 μM = 0% Ro15-4513: 100 μM = 0%
% stimulation of the GABA currents (100 μM) [1]: +155 ± 47%
inhibition at 100 µM ([7]; 100 μM): 0%

O=C1CCC(C2c3ccccc3CCN2C(=O)OCc2ccccc2)O1 (racemic) [Compound 54, (±)-(1R,2′R)-2-N-Benzyloxycarbonyl-1-(2,3,4,5-tetrahydro-5-oxo-2-furyl)-1,2,3,4-tetrahydroisoquinoline]
IC50 [2]: 0.2 µM
Inhibition of the tritiated ligands % TBPS ([3]; 10 μM): 10 μM = 0%
% stimulation of the GABA currents ([1]; 0.1 μM compound): +4 ± 10%
% stimulation of the GABA currents (100 μM) [1]: +351 ± 17%
% stimulation of the GABA currents (100 μM) ([1]; listed as (+/−) 54): +351%
% of the stimulation inhibited by flumazenil ([1]; stimulation by 10 μM compound, 1 μM flumazenil, α1β2γ2): 78%
IC50 ([5]; cerebellum (ce; BZ1 subtype)): 0.04 µM
IC50 ([5]; cortex (co = whole brain without cerebellum; BZ2 subtype)): 0.15 µM

O=C1CCC(C2c3ccccc3CCN2S(=O)(=O)c2ccc(OC(F)(F)F)cc2)O1 (mixture of isomers) [Compound 71]
IC50 [2]: > 100 µM
Muscimol: stimulation ([4]; 100 μM): weak stimulation at 100 μM in the cortex alone
IC50 ([7]; read-out: IC50 Flu / BZ receptor): > 100 µM

O=C1CCC(C2c3ccccc3CCN2S(=O)(=O)c2ccc(Cl)cc2)O1 (racemic) [Compound 66, (±)-(1R,2′R)-1-(2,3,4,5-Tetrahydro-5-oxo-2-furyl)-2-N-p-chlorobenzenesulfonyl-1,2,3,4-tetrahydroisoquinoline]
melting point: 145 to 147 °C
% stimulation of the GABA currents (100 μM) [1]: +479%
% stimulation of the GABA currents (100 μM) ([1]; listed as (+/−) 66): +479%

O=C1C=C[C@@H]([C@H]2c3ccccc3CCN2C(=S)Oc2ccccc2)O1 (racemic) [Compound 64]
Ro15-4513 displacement [2]: Muscimol: 100 μM = 0% Ro15-4513: 100 μM = 0%
IC50 [8]: > 100 µM
IC50 [9]: 30 µM
Displacement of muscimol ([4]; 100 μM): Muscimol: 100 μM = 0% Ro15-4513: 100 μM = 0%
% stimulation of the GABA currents (100 μM) [1]: +265 ± 50%
inhibition at 100 µM ([7]; 100 μM): 0%
